EPA's CvTdb concentration-time database

Key:
[1] = system: Rat; test: concentration in plasma after dosing; details: 2 h; dosed: 2-Methyltetrahydrofuran; 40 mg/kg; iv; Female; Harlan Sprague Dawley
[2] = system: Rat; test: concentration in brain after dosing; details: 7 min; dosed: 2-Methyltetrahydrofuran; 40 mg/kg; iv; Male; Harlan Sprague Dawley
[3] = system: Rat; test: concentration in plasma after dosing; details: 4 h; dosed: 2-Methyltetrahydrofuran; 40 mg/kg; iv; Male; Harlan Sprague Dawley
[4] = system: Rat; test: concentration in brain after dosing; details: 2 h; dosed: 2-Methyltetrahydrofuran; 40 mg/kg; iv; Female; Harlan Sprague Dawley
[5] = system: Rat; test: concentration in plasma after dosing; details: 192 h; dosed: 678-39-7; 12 mg/kg; iv; Male; F344
[6] = system: Rat; test: concentration in brain after dosing; details: 3 h; dosed: Fluorotelomer alcohol 8+2; 80 mg/kg; oral; Female; Harlan Sprague Dawley
[7] = system: Rat; test: concentration in kidney after dosing; details: 6 h; dosed: Fluorotelomer alcohol 8+2; 24 mg/kg; oral; Male; Harlan Sprague Dawley
[8] = system: Rat; test: concentration in plasma after dosing; details: dosed: Fluorotelomer alcohol 8+2, 12 mg/kg, oral, Male, Harlan Sprague Dawley
[9] = system: Rat; test: concentration in kidney after dosing; details: 0.5 h; dosed: Fluorotelomer alcohol 8+2; 80 mg/kg; oral; Female; Harlan Sprague Dawley
[10] = system: Rat; test: concentration in brain after dosing; details: 0.5 h; dosed: Fluorotelomer alcohol 8+2; 80 mg/kg; oral; Female; Harlan Sprague Dawley
[11] = system: Rat; test: concentration in plasma after dosing; details: dosed: Fluorotelomer alcohol 8+2, 12 mg/kg, oral, Male, Harlan Sprague Dawley; remark: listed apart in the source
[12] = system: Rat; test: concentration in plasma after dosing; details: dosed: 678-39-7, 12 mg/kg, iv, Male, F344
[13] = system: Rat; test: concentration in kidney after dosing; details: 0.5 h; dosed: Perfluorohexanoic Acid; 80 mg/kg; oral; Female; Harlan Sprague Dawley
[14] = system: Rat; test: concentration in liver after dosing; details: 0.5 h; dosed: Perfluorohexanoic Acid; 80 mg/kg; oral; Female; Harlan Sprague Dawley
[15] = system: Rat; test: concentration in plasma after dosing; details: 3 h; dosed: Perfluorohexanoic Acid; 80 mg/kg; oral; Male; Harlan Sprague Dawley
[16] = system: Rat; test: concentration in brain after dosing; details: 3 h; dosed: Perfluorohexanoic Acid; 80 mg/kg; oral; Male; Harlan Sprague Dawley
[17] = system: Rat; test: concentration in brain after dosing; details: 0.5 h; dosed: Perfluorohexanoic Acid; 80 mg/kg; oral; Female; Harlan Sprague Dawley
[18] = system: Rat; test: concentration in plasma after dosing; details: dosed: Perfluorohexanoic Acid, 40 mg/kg, iv, Male, F344
[19] = system: Rat; test: concentration in brain after dosing; details: 0.5 h; dosed: Perfluorohexanoic Acid; 80 mg/kg; oral; Male; Harlan Sprague Dawley
[20] = system: Rat; test: concentration in plasma after dosing; details: 24 h; dosed: Gemfibrozil; 100 mg/kg; oral; Male; Sprague-Dawley
[21] = system: Rat; test: concentration in plasma after dosing; details: 1 h; dosed: Gemfibrozil; 4.29 mg/kg; oral; Male; Sprague-Dawley
[22] = system: Rat; test: concentration in plasma after dosing; details: 6 h; dosed: Gemfibrozil; 50 mg/kg; oral; Male; Sprague-Dawley
[23] = system: rat; test: concentration in blood after dosing; negative times count back from the end of exposure; details: dosed: trichloroethylene, 50 ppm, inhalation, duration: 4 hr, male, Sprague Dawley
[24] = system: Rat; test: concentration in plasma after dosing; details: dosed: Perfluorooctane Sulfonate, 2 mg/kg, oral, Female, Harlan Sprague Dawley
[25] = system: Rat; test: concentration in brain after dosing; details: 864 h; dosed: Perfluorooctane Sulfonate; 20 mg/kg; oral; Male; Harlan Sprague Dawley
[26] = system: Rat; test: concentration in kidney after dosing; details: 1848 h; dosed: Perfluorooctane Sulfonate; 20 mg/kg; oral; Male; Harlan Sprague Dawley
[27] = system: Rat; test: concentration in liver after dosing; details: 3360 h; dosed: Perfluorooctane Sulfonate; 2 mg/kg; oral; Female; Harlan Sprague Dawley
[28] = system: Rat; test: concentration in liver after dosing; details: 864 h; dosed: Perfluorooctane Sulfonate; 20 mg/kg; oral; Male; Harlan Sprague Dawley
[29] = system: Rat; test: concentration in kidney after dosing; details: 24 h; dosed: Perfluorooctane Sulfonate; 2 mg/kg; oral; Female; Harlan Sprague Dawley
[30] = system: Rat; test: concentration in liver after dosing; details: 3360 h; dosed: Perfluorooctane Sulfonate; 2 mg/kg; oral; Female; Harlan Sprague Dawley; remark: listed apart in the source
[31] = system: Rat; test: concentration in kidney after dosing; details: 6 h; dosed: Perfluorooctane Sulfonate; 20 mg/kg; oral; Female; F344
[32] = system: Rat; test: concentration in liver after dosing; details: 3360 h; dosed: Perfluorooctane Sulfonate; 20 mg/kg; oral; Male; Harlan Sprague Dawley
[33] = system: Rat; test: concentration in brain after dosing; details: 1848 h; dosed: Perfluorooctane Sulfonate; 20 mg/kg; oral; Male; Harlan Sprague Dawley
[34] = system: Rat; test: concentration in liver after dosing; details: 1848 h; dosed: Perfluorooctane Sulfonate; 20 mg/kg; oral; Female; F344
[35] = system: Rat; test: concentration in plasma after dosing; details: dosed: Perfluorooctane Sulfonate, 2 mg/kg, iv, Male, F344
[36] = system: Rat; test: concentration in plasma after dosing; details: dosed: Perfluorooctane Sulfonate, 2 mg/kg, iv, Female, Harlan Sprague-Dawley
[37] = system: Rat; test: concentration in kidney after dosing; details: 3360 h; dosed: Perfluorooctane Sulfonate; 2 mg/kg; oral; Female; Harlan Sprague Dawley
[38] = system: Rat; test: concentration in kidney after dosing; details: 24 h; dosed: Perfluorooctane Sulfonate; 20 mg/kg; oral; Female; F344
[39] = system: Rat; test: concentration in brain after dosing; details: 24 h; dosed: Perfluorooctane Sulfonate; 20 mg/kg; oral; Female; F344

CC1CCCO1 (stereo not drawn) [2-Methyltetrahydrofuran]
Details | concentration in brain [ng/mL] | concentration in plasma [ng/mL]
[1] | – | 9860
[2] | 23700 | –
[3] | – | 1880
[4] | 3530 | –

O=C(O)CCC(F)(F)C(F)(F)C(F)(F)C(F)(F)C(F)(F)C(F)(F)C(F)(F)F [Fluorotelomer acid 7+3]
Details | concentration in brain [ng/g] | concentration in kidney [ng/g] | concentration in plasma [ng/mL]
[5] | – | – | 13.6
[6] | 1580 | – | –
[7] | – | 822 | –
[9] | – | 357 | –
[10] | 114 | – | –

Details | concentration in plasma [ng/mL]
[8], 48 h | 169
[8], 192 h | 26.3
[11], 1 h | 650
[11], 24 h | 210
[12], 3 h | 807
[12], 5 min | 11.6

O=C(O)C(F)(F)C(F)(F)C(F)(F)C(F)(F)C(F)(F)F [Perfluorohexanoic Acid]
Details | concentration in brain [ng/g] | concentration in kidney [ng/g] | concentration in liver [ng/g] | concentration in plasma [ng/mL]
[13] | – | 46000 | – | –
[14] | – | – | 24900 | –
[15] | – | – | – | 76100
[16] | 1460 | – | – | –
[17] | 1270 | – | – | –
[19] | 2500 | – | – | –

[18]
Details | concentration in plasma [ng/mL]
0.25 h | 19100
6 h | 2380

Cc1ccc(C)c(OCCCC(C)(C)C(=O)O)c1 [Gemfibrozil]
Details | concentration in plasma [ng/mL]
[20] | 1050
[21] | 258
[22] | 2930

ClC=C(Cl)Cl [trichloroethylene]
[23]
Details | concentration in blood [ng/mL]
0.2317 h | 2420
0.4119 h | 1510
0.9932 h | 820
1.803 h | 370
3.975 h | 289

[23], during exposure
Details | concentration in blood [ng/mL]
-6 s | 2790
-3.423 h | 1890
-3.024 h | 1360
-1.999 h | 2680
-1.012 h | 2670

O=S(=O)([O-])C(F)(F)C(F)(F)C(F)(F)C(F)(F)C(F)(F)C(F)(F)C(F)(F)C(F)(F)F [Perfluorooctane Sulfonate]
Details | concentration in plasma [ng/mL]
[24], 5 min | 38.2
[24], 12 h | 7740
[24], 1200 h | 892
[35], 6 h | 4220
[35], 864 h | 1290
[35], 3216 h | 359
[36], 1 h | 4320
[36], 192 h | 3170
[36], 2376 h | 542

Details | concentration in brain [ng/g] | concentration in kidney [ng/g] | concentration in liver [ng/g]
[25] | 2330 | – | –
[26] | – | 25300 | –
[27] | – | – | 3090
[28] | – | – | 98700
[29] | – | 4940 | –
[30] | – | – | 2150
[31] | – | 152000 | –
[32] | – | – | 23900
[33] | 1320 | – | –
[34] | – | – | 55400
[37] | – | 1070 | –
[38] | – | 132000 | –
[39] | 15200 | – | –
